According to ChEMBL document CHEMBL1909046, “DrugMatrix in vitro pharmacology data”:

Tests used:
[1] = molecular target: T1, Endothelin-1 receptor (Homo sapiens, UniProt P25101); type: cell membranes, Membrane; settings: cho-k1; further: in other assays of this panel Not Active means under 50% inhibition at 10 µM
T1 sequence (P25101 whole entry): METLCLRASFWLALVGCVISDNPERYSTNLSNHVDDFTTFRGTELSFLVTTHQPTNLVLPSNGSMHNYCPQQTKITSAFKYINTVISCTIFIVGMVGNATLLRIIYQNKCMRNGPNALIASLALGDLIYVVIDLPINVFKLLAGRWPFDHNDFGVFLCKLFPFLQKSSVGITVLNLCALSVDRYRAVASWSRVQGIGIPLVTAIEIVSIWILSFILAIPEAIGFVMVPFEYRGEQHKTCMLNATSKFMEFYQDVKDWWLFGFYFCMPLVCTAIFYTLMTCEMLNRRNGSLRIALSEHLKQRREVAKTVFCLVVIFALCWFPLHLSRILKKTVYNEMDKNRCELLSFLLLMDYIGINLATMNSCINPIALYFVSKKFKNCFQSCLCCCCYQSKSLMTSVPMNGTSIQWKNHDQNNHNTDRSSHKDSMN

[2] = molecular target: T2, Cytochrome P450 2A6 (Homo sapiens, UniProt P11509); settings: bti-tn-5b1-4; further: in other assays of this panel Not Active means under 50% inhibition at 10 µM
T2 sequence (P11509 whole entry): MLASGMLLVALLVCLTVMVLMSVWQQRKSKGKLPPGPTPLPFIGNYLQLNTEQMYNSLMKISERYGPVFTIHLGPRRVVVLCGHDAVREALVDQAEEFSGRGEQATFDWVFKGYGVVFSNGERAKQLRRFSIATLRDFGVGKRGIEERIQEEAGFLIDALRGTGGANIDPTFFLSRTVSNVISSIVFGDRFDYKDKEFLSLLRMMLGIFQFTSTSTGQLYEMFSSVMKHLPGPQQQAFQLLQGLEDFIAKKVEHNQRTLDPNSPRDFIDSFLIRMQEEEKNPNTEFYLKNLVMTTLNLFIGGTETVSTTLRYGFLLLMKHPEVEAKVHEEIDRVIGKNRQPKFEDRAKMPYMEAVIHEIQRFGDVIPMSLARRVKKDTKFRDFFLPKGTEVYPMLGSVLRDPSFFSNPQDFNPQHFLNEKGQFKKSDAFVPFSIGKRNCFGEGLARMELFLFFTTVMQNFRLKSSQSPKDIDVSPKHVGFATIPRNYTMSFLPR

[3] = molecular target: Nitric oxide synthase 1 (Rattus norvegicus, UniProt P29476); type: tissue-based, Cerebellum; further: in other assays of this panel Not Active means under 50% inhibition at 10 µM
Chain of Nitric oxide synthase 1 (P29476 whole entry): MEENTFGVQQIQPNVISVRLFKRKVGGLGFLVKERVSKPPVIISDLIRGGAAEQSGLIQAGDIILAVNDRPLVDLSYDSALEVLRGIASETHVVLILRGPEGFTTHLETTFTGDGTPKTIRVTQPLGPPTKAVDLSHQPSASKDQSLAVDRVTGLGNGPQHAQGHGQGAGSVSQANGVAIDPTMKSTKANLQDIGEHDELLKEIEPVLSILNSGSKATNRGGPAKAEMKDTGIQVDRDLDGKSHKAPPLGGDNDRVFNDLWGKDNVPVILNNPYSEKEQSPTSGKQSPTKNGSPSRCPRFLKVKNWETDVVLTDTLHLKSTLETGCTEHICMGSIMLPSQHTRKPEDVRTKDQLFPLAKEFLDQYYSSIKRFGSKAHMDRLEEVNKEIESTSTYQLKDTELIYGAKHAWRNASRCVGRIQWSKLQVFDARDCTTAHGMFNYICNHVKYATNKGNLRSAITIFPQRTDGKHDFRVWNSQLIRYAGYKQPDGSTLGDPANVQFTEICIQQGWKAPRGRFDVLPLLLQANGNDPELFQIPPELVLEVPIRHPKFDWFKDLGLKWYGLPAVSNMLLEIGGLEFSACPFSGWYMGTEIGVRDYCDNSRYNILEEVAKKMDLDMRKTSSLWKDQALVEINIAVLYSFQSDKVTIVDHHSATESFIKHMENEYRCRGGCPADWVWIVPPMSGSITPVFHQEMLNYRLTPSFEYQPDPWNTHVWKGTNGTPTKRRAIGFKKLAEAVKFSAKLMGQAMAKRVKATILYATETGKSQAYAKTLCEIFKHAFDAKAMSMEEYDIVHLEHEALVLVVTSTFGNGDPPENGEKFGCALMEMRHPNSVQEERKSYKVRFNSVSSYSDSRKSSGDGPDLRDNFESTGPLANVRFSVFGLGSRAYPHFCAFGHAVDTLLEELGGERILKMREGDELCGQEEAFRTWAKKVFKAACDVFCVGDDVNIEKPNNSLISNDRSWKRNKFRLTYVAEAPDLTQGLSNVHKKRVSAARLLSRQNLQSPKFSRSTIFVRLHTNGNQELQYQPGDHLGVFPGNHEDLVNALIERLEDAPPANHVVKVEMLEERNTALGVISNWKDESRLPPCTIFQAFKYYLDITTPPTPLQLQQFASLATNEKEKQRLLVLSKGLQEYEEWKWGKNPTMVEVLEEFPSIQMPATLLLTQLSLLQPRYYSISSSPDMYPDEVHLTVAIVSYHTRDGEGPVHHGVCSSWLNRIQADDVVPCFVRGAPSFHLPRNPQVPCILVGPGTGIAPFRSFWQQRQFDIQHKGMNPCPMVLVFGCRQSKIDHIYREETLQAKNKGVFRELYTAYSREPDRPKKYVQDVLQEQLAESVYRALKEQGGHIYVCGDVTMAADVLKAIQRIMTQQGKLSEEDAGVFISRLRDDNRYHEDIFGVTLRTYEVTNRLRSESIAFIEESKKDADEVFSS

[4] = DRUGMATRIX: Phosphodiesterase PDE4 enzyme inhibition (substrate: [3H]cAMP + cAMP); settings: u-937; Not Active = under 50% inhibition at 10 µM
[5] = DRUGMATRIX: Serotonin (5-Hydroxytryptamine) 5-HT3 radioligand binding (ligand: [3H] GR-65630); type: cell membranes, Membrane; settings: hek293; Not Active = under 50% inhibition at 10 µM
[6] = DRUGMATRIX: Glutamate, AMPA radioligand binding (ligand: [3H] AMPA); type: cell membranes, Rattus norvegicus, Wistar, Cerebral cortex, Membrane; settings: Not Active = under 50% inhibition at 10 µM
[7] = molecular target: Tyrosine-protein kinase Fyn (Homo sapiens, UniProt P06241); assay: biochemical; type: cell-based, Insect cells; settings: insect cells;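 further: enzymatic inhibition of Fyn kinase activity measured with Poly(Glu:Tyr) as the phosphorylation substrate; in other assays of this panel Not Active means under 50% inhibition at 10 µM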
Chain of Tyrosine-protein kinase Fyn (P06241 whole entry): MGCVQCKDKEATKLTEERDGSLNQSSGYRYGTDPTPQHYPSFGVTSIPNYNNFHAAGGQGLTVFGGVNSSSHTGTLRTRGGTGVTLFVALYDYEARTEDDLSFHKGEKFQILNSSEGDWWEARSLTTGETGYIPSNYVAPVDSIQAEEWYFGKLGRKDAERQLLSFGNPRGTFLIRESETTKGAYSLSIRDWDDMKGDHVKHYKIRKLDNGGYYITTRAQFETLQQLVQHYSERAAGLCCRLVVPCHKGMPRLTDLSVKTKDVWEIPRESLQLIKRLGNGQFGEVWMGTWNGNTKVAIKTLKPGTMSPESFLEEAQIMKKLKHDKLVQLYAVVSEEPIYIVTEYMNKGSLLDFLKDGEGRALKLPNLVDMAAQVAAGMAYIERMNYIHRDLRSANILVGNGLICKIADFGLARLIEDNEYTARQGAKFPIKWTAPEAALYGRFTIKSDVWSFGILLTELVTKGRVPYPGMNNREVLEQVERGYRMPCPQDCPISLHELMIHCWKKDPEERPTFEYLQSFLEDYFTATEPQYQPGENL

[8] = molecular target: Mitogen-activated protein kinase 14 (Homo sapiens, UniProt Q16539); parameters: species or system Escherichia coli
Chain of Mitogen-activated protein kinase 14 (Q16539 whole entry): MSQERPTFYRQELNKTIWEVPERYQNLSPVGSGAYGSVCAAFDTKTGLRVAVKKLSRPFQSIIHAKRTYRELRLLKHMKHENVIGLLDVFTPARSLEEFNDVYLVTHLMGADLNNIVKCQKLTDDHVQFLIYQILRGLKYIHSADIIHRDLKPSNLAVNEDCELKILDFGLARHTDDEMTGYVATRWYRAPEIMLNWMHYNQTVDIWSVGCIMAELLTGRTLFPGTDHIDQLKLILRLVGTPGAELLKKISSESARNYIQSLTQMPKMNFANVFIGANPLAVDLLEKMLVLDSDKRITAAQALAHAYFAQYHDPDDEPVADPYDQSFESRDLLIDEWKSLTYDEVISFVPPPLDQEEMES

[9] = molecular target: 5-hydroxytryptamine receptor 6 (Homo sapiens, UniProt P50406); type: cell membranes, HeLa, Membrane; settings: hela; further: in other assays of this panel Not Active means under 50% inhibition at 10 µM
Chain of 5-hydroxytryptamine receptor 6 (P50406 whole entry): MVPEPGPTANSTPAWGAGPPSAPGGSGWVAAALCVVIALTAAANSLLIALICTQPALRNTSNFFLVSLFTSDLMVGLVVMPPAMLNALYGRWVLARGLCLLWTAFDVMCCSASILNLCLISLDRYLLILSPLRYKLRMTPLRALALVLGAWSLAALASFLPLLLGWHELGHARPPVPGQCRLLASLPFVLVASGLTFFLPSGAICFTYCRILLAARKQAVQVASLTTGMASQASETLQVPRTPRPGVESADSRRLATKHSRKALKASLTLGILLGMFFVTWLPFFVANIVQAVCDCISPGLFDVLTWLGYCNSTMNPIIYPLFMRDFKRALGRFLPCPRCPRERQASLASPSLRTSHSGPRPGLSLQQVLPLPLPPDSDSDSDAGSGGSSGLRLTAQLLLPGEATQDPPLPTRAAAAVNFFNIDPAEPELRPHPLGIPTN

[10] = DRUGMATRIX: Sodium/nucleoside co-transporter radioligand binding (ligand: nitrobenzylthioinosine); type: cell membranes, Cavia porcellus, Dunkin-Hartley, Cerebral cortex, Membrane; settings: Not Active = under 50% inhibition at 10 µM
[11] = molecular target: 5-hydroxytryptamine receptor 2B (Homo sapiens, UniProt P41595); type: cell membranes, CHO-K1, Membrane; settings: cho-k1; further: in other assays of this panel Not Active means under 50% inhibition at 10 µM
Chain of 5-hydroxytryptamine receptor 2B (P41595 whole entry): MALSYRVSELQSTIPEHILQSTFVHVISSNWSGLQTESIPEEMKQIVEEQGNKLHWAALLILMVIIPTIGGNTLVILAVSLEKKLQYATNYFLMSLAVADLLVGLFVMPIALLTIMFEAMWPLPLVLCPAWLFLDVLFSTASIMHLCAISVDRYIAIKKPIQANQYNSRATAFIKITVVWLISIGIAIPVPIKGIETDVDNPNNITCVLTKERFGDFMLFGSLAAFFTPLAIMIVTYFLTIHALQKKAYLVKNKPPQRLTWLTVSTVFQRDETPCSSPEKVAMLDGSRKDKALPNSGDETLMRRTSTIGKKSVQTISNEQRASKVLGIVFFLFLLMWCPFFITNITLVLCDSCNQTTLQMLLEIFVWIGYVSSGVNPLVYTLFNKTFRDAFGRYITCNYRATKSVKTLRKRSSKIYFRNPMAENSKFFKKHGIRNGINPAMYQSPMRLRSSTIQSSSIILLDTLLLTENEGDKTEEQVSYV

[12] = molecular target: T3, Polyunsaturated fatty acid lipoxygenase ALOX15 (Oryctolagus cuniculus, UniProt P12530); assay: biochemical; type: tissue-based, Reticulocytes; settings: reticulocytes
T3 sequence (P12530 whole entry): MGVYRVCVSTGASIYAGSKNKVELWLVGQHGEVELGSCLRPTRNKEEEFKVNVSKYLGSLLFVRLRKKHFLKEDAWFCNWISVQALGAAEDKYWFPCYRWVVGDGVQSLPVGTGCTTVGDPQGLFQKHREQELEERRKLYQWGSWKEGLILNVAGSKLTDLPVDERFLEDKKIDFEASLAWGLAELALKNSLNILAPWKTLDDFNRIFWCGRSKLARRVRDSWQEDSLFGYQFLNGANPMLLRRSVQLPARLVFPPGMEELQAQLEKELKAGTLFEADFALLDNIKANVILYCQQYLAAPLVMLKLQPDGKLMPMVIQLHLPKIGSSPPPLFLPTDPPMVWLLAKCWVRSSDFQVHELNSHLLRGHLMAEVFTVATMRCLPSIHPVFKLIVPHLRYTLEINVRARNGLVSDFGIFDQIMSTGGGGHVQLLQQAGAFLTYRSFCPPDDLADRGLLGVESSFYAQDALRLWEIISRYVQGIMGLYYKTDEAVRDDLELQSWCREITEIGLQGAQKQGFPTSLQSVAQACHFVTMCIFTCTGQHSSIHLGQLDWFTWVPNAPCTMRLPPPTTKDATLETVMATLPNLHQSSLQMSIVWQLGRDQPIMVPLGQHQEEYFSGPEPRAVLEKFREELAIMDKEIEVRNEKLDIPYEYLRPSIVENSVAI

[13] = DRUGMATRIX: Purinergic P2X radioligand binding (ligand: [3H] alpha, beta-Methylene-ATP); type: cell membranes, Oryctolagus cuniculus, New Zealand albino, Urinary bladder, Membrane; settings: Not Active = under 50% inhibition at 10 µM
[14] = molecular target: T4, Muscarinic acetylcholine receptor M4 (Homo sapiens, UniProt P08173); type: cell membranes, CHO-K1, Membrane; settings: cho-k1; further: in other assays of this panel Not Active means under 50% inhibition at 10 µM
T4 sequence (P08173 whole entry): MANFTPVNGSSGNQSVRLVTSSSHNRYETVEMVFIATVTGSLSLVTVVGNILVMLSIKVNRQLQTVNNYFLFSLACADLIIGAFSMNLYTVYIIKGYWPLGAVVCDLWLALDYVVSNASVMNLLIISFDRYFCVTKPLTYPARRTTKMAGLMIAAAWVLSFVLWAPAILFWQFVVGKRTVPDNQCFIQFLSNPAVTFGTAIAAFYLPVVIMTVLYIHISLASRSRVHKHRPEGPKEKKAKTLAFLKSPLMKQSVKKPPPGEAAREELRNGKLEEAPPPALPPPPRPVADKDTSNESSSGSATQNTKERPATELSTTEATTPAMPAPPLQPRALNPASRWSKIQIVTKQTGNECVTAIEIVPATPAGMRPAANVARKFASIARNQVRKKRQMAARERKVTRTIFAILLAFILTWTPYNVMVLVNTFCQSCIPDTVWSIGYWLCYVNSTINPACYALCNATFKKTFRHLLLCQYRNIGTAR

O=C1OC2(c3ccc(O)cc3Oc3cc(O)ccc32)c2ccccc21 [FLUORESCEIN]
Not Active: IC50 [1] | IC50 [2] | Ki [2] | IC50 [3] | IC50 [4] | Ki [4] | IC50 [5] | Ki [5] | IC50 [6] | Ki [6] | IC50 [7] | IC50 [8] | IC50 [9] | IC50 [10] | Ki [10] | IC50 [11] | IC50 [12] | IC50 [13] | Ki [13] | IC50 [14]

COC1=CC(=O)C[C@@H](C)[C@]12Oc1c(Cl)c(OC)cc(OC)c1C2=O [GRISEOFULVIN]
Not Active: IC50 [1] | IC50 [2] | Ki [2] | IC50 [3] | IC50 [4] | Ki [4] | IC50 [5] | Ki [5] | IC50 [6] | Ki [6] | IC50 [7] | IC50 [8] | IC50 [9] | IC50 [10] | Ki [10] | IC50 [11] | IC50 [12] | IC50 [13] | Ki [13] | IC50 [14]

CARBOPLATIN
Not Active: IC50 [1] | Ki [1] | IC50 [2] | Ki [2] | IC50 [3] | Ki [3] | IC50 [4] | Ki [4] | IC50 [5] | Ki [5] | IC50 [6] | Ki [6] | IC50 [7] | Ki [7] | IC50 [8] | Ki [8] | IC50 [9] | Ki [9] | IC50 [10] | Ki [10] | IC50 [11] | Ki [11] | IC50 [12] | Ki [12] | IC50 [13] | Ki [13] | IC50 [14] | Ki [14]
